Starred links: 1 amine or outer side, 2 acyl side, 3 side chain; linkers in the order of their positions; H or OH if unused. Non-standard residues stand in square brackets, D forms with d. Residues, ends and D or L forms follow the SMILES beside them. Groups on a side chain read outwards from the residue. *: point of attachment. C18 diacid = O=C(O)CCCCCCCCCCCCCCCCC(=O)*; γGlu = O=C(O)[C@H](CCC(=O)[*:2])N[*:1]; AEEA = NCCOCCOCC(=O)O; Aib = CC(C)(N)C(=O)O
Test: Effect on blood pressure, telemetry (Example 17)
Type: in vivo
Conditions: Sprague Dawley rats, 0.1 mg/kg SC
Method: The effect of the compounds on blood pressure was determined in telemetry studies in Sprague Dawley rats at a dosage of 0.1 mg/kg SC.
The rats were previously implanted with a telemetry device (DSI, Saint-Paul, USA, HD-S10, HD-S11 or HD S21) and allowed to recover for a minimum period of 2 weeks before treatment with vehicle or the different peptides. Blood pressure (BP) was recorded through a catheter inserted into the abdominal aorta. The device body was placed in the abdomen. At the end of surgery, animals were placed in individual cages until the end of the study.
Pressure signals were recorded for one hour before the treatment (basal period). Thereafter, the subcutaneous administration of the test compound or its vehicle was performed, under continuous recording of the signal over a 48-hour period. Data acquisition was performed using Hem 4.3 acquisition software (Notocord®, Le Pecq, France) connected to the telemetry device. Hemodynamic parameters were recorded during a […] before treatment and every 4-hour period following subcutaneous administration over 48 hours.
Investigated parameters (calculated from BP signal) were Heart Rate (HR) in beats per minute (bpm), Diastolic and Systolic Blood Pressure (DBP) in mmHg, and Mean Blood Pressure (MBP) in mmHg.
Data from Hem were manipulated using Microsoft Excel®. For each parameter, a basal value was determined as the average calculated over a 1-hour period during the pre-treatment sequence, and the values post treatment were calculated over 4-hour periods ([0-4], [4-8], [8-12], [12-16], [16-20], [20-24], [24-28], [32-36], [36-40], [40-44] and [44-48] hours) covering the 48-hour period following administration.
Representative data are presented in Table 15 below, in which “n” represents the number of animals for which individual values were obtained and “Duration” indicates the last time point for which a significant effect on BP was still seen: Table 15

**Q.** What does the source list for `CC[C@H](C)[C@H](N)C(=O)N[C@H](C(=O)N[C@@H](CC(C)C)C(=O)N[C@@H](CO)C(=O)N[C@@H](CC(C)C)C(=O)N[C@@H](CC(=O)O)C(=O)N[C@@H](C(=O)N1CCC[C@H]1C(=O)N[C@H](C(=O)N[C@@H](CCCCN)C(=O)N[C@@H](CC(C)C)C(=O)N[C@@H](CCCCNC(=O)COCCOCCNC(=O)COCCOCCNC(=O)CC[C@H](NC(=O)CCCCCCCCCCCCCCCCC(=O)O)C(=O)O)C(=O)N[C@@H](CCC(N)=O)C(=O)N[C@H](C(=O)N[C@@H](CC(C)C)C(=O)N[C@@H](CC(C)C)C(=O)N[C@@H](CCCCN)C(=O)N[C@@H](CCC(N)=O)C(=O)N[C@@H](CCC(=O)O)C(=O)N[C@@H](CCCNC(=N)N)C(=O)N[C@@H](CCC(N)=O)C(=O)N[C@@H](CCCCN)C(=O)NC(C)(C)C(=O)N[C@@H](CCC(N)=O)C(=O)N[C@@H](CCCNC(=N)N)C(=O)N[C@@H](CCC(=O)O)C(=O)N[C@@H](CCC(N)=O)C(=O)N[C@@H](C)C(=O)N[C@@H](CCC(=O)O)C(=O)N[C@@H](CCCCN)C(=O)N[C@@H](CC(N)=O)C(=O)N[C@@H](CCCCN)C(=O)N[C@@H](CCC(N)=O)C(=O)N[C@H](C(=O)N[C@@H](CC(C)C)C(=O)N[C@@H](C)C(=O)N[C@@H](CCC(N)=O)C(=O)N[C@H](C(N)=O)C(C)C)[C@@H](C)CC)[C@@H](C)CC)[C@@H](C)CC)C(C)C)C(C)C` [SEQ ID NO: 130, IVLSLDvPIKLK*QILLKQERQKAibQREQAEKNKQILAQV-NH2] (H-IVLSLD[dV]PIKLK([AEEA-AEEA-γGlu-C18 diacid])QILLKQERQK[Aib]QREQAEKNKQILAQV-NH2)?
**A.** Duration (h): last time point for which a significant effect on BP was still seen: 30 h; Effect on Systolic Pressure % change from baseline 8 h: −15.2%; Effect on Systolic Pressure % change from baseline 24 h: −9.9%

**Q.** With `CC[C@H](C)[C@H](N)C(=O)N[C@H](C(=O)N[C@@H](CC(C)C)C(=O)N[C@@H](CO)C(=O)N[C@@H](CC(C)C)C(=O)N[C@@H](CC(=O)O)C(=O)N[C@@H](C(=O)N1CCC[C@H]1C(=O)N[C@H](C(=O)N[C@@H](CCCCN)C(=O)N[C@@H](CC(C)C)C(=O)N[C@@H](CCCCNC(=O)COCCOCCNC(=O)COCCOCCNC(=O)CC[C@H](NC(=O)CCCCCCCCCCCCCCCCC(=O)O)C(=O)O)C(=O)N[C@@H](CCC(N)=O)C(=O)N[C@H](C(=O)N[C@@H](CC(C)C)C(=O)N[C@@H](CC(C)C)C(=O)N[C@@H](CCCCN)C(=O)N[C@@H](CCC(N)=O)C(=O)N[C@@H](CCC(=O)O)C(=O)N[C@@H](CCCNC(=N)N)C(=O)N[C@@H](CCC(N)=O)C(=O)N[C@@H](CCCCN)C(=O)NC(C)(C)C(=O)N[C@@H](CCC(N)=O)C(=O)N[C@@H](CCCNC(=N)N)C(=O)N[C@@H](CCC(N)=O)C(=O)N[C@@H](CCC(N)=O)C(=O)N[C@@H](C)C(=O)N[C@@H](CCC(=O)O)C(=O)N[C@@H](CCCCN)C(=O)N[C@@H](CC(N)=O)C(=O)N[C@@H](CCCCN)C(=O)N[C@@H](CCC(N)=O)C(=O)N[C@H](C(=O)N[C@@H](CC(C)C)C(=O)N[C@@H](C)C(=O)N[C@@H](CCC(N)=O)C(=O)N[C@H](C(N)=O)C(C)C)[C@@H](C)CC)[C@@H](C)CC)[C@@H](C)CC)C(C)C)C(C)C` [SEQ ID NO: 135, IVLSLDvPIKLK*QILLKQERQKAibQRQQAEKNKQILAQV-NH2] (H-IVLSLD[dV]PIKLK([AEEA-AEEA-γGlu-C18 diacid])QILLKQERQK[Aib]QRQQAEKNKQILAQV-NH2) as the molecule, how does the “Duration (h): last time point for which a significant effect on BP was still seen” value read?
**A.** The value was 30 h.

**Q.** And the “Effect on Systolic Pressure % change from baseline 8 h” value?
**A.** Its value is −8.8%.

**Q.** What about the “Effect on Systolic Pressure % change from baseline 24 h” value of the same molecule?
**A.** Its value is −4.8%.

**Q.** Which “Duration (h): last time point for which a significant effect on BP was still seen” value does the source give for `CC[C@H](C)[C@H](N)C(=O)N[C@H](C(=O)N[C@@H](CC(C)C)C(=O)N[C@@H](CO)C(=O)N[C@@H](CC(C)C)C(=O)N[C@@H](CC(=O)O)C(=O)N[C@@H](C(=O)N1CCC[C@H]1C(=O)N[C@H](C(=O)N[C@@H](CCCCN)C(=O)N[C@@H](CC(C)C)C(=O)N[C@@H](CCCCNC(=O)COCCOCCNC(=O)COCCOCCNC(=O)CC[C@H](NC(=O)CCCCCCCCCCCCCCCCC(=O)O)C(=O)O)C(=O)N[C@@H](CCC(N)=O)C(=O)N[C@H](C(=O)N[C@@H](CC(C)C)C(=O)N[C@@H](CC(C)C)C(=O)N[C@@H](CCCCN)C(=O)N[C@@H](CCC(N)=O)C(=O)N[C@@H](CCC(=O)O)C(=O)N[C@@H](CCCNC(=N)N)C(=O)N[C@@H](CCC(N)=O)C(=O)N[C@@H](CCCCN)C(=O)N[C@@H](CCCCN)C(=O)N[C@@H](CCC(N)=O)C(=O)N[C@@H](CCCNC(=N)N)C(=O)N[C@@H](CCC(=O)O)C(=O)N[C@@H](CCC(N)=O)C(=O)N[C@@H](C)C(=O)N[C@@H](CCC(=O)O)C(=O)N[C@@H](CCCCN)C(=O)N[C@@H](CC(N)=O)C(=O)N[C@@H](CCCCN)C(=O)N[C@@H](CCC(N)=O)C(=O)N[C@H](C(=O)N[C@@H](CC(C)C)C(=O)N[C@@H](CCC(=O)O)C(=O)N[C@@H](CCC(N)=O)C(=O)N[C@H](C(N)=O)C(C)C)[C@@H](C)CC)[C@@H](C)CC)[C@@H](C)CC)C(C)C)C(C)C` [SEQ ID NO: 137] (H-IVLSLD[dV]PIKLK([AEEA-AEEA-γGlu-C18 diacid])QILLKQERQKKQREQAEKNKQILEQV-NH2) here?
**A.** The value was 28 h.

**Q.** What about the “Effect on Systolic Pressure % change from baseline 8 h” value of the same molecule?
**A.** The value was −15.9%.

**Q.** And the “Effect on Systolic Pressure % change from baseline 24 h” value?
**A.** Its value is −6.5%.

**Q.** What does the source list for `CC[C@H](C)[C@H](N)C(=O)N[C@H](C(=O)N[C@@H](CC(C)C)C(=O)N[C@@H](CO)C(=O)N[C@@H](CC(C)C)C(=O)N[C@@H](CC(=O)O)C(=O)N[C@@H](C(=O)N1CCC[C@H]1C(=O)N[C@H](C(=O)N[C@@H](CCCCN)C(=O)N[C@@H](CC(C)C)C(=O)N[C@@H](CCCCNC(=O)COCCOCCNC(=O)COCCOCCNC(=O)CC[C@H](NC(=O)CCCCCCCCCCCCCCCCC(=O)O)C(=O)O)C(=O)N[C@@H](CCC(N)=O)C(=O)N[C@H](C(=O)N[C@@H](CC(C)C)C(=O)N[C@@H](CC(C)C)C(=O)N[C@@H](CCCCN)C(=O)N[C@@H](CCC(N)=O)C(=O)N[C@@H](CCC(=O)O)C(=O)N[C@@H](CCCNC(=N)N)C(=O)N[C@@H](CCC(N)=O)C(=O)N[C@@H](CCCCN)C(=O)N[C@@H](CCCCN)C(=O)N[C@@H](CCC(N)=O)C(=O)N[C@@H](CCCNC(=N)N)C(=O)N[C@@H](CCC(=O)O)C(=O)N[C@@H](CCCCN)C(=O)N[C@@H](C)C(=O)N[C@@H](CCC(=O)O)C(=O)N[C@@H](CCCCN)C(=O)N[C@@H](CC(N)=O)C(=O)N[C@@H](CCCCN)C(=O)N[C@@H](CCC(N)=O)C(=O)N[C@H](C(=O)N[C@@H](CC(C)C)C(=O)N[C@@H](C)C(=O)N[C@@H](CCC(N)=O)C(=O)N[C@H](C(N)=O)C(C)C)[C@@H](C)CC)[C@@H](C)CC)[C@@H](C)CC)C(C)C)C(C)C` [SEQ ID NO: 138] (H-IVLSLD[dV]PIKLK([AEEA-AEEA-γGlu-C18 diacid])QILLKQERQKKQREKAEKNKQILAQV-NH2)?
**A.** Duration (h): last time point for which a significant effect on BP was still seen: 30 h; Effect on Systolic Pressure % change from baseline 8 h: −6.1%; Effect on Systolic Pressure % change from baseline 24 h: −3.6%

**Q.** With `CC[C@H](C)[C@H](N)C(=O)N[C@H](C(=O)N[C@@H](CC(C)C)C(=O)N[C@@H](CO)C(=O)N[C@@H](CC(C)C)C(=O)N[C@@H](CC(=O)O)C(=O)N[C@@H](C(=O)N1CCC[C@H]1C(=O)N[C@H](C(=O)N[C@@H](CCCCN)C(=O)N[C@@H](CC(C)C)C(=O)N[C@@H](CCCCNC(=O)COCCOCCNC(=O)COCCOCCNC(=O)CC[C@H](NC(=O)CCCCCCCCCCCCCCCCC(=O)O)C(=O)O)C(=O)N[C@@H](CCC(N)=O)C(=O)N[C@H](C(=O)N[C@@H](CC(C)C)C(=O)N[C@@H](CC(C)C)C(=O)N[C@@H](CCC(=O)O)C(=O)N[C@@H](CCC(N)=O)C(=O)N[C@@H](C)C(=O)N[C@@H](CCCNC(=N)N)C(=O)N[C@@H](CCC(N)=O)C(=O)N[C@@H](CCCCN)C(=O)NC(C)(C)C(=O)N[C@@H](CCC(N)=O)C(=O)N[C@@H](CCCNC(=N)N)C(=O)N[C@@H](C)C(=O)N[C@@H](CCC(N)=O)C(=O)N[C@@H](C)C(=O)N[C@@H](CCC(=O)O)C(=O)N[C@@H](CCCCN)C(=O)N[C@@H](CC(N)=O)C(=O)N[C@@H](CCCCN)C(=O)N[C@@H](CCCNC(=N)N)C(=O)N[C@H](C(=O)N[C@@H](CC(C)C)C(=O)N[C@@H](CCC(=O)O)C(=O)N[C@@H](CCCNC(=N)N)C(=O)N[C@H](C(N)=O)C(C)C)[C@@H](C)CC)[C@@H](C)CC)[C@@H](C)CC)C(C)C)C(C)C` [SEQ ID NO: 140, IVLSLDvPIKLK*QILLEQARQKAibQRAQAEKNKRILERV-NH2] (H-IVLSLD[dV]PIKLK([AEEA-AEEA-γGlu-C18 diacid])QILLEQARQK[Aib]QRAQAEKNKRILERV-NH2) as the molecule, how does the “Duration (h): last time point for which a significant effect on BP was still seen” value read?
**A.** Its value is 32 h.

**Q.** And the “Effect on Systolic Pressure % change from baseline 8 h” value?
**A.** The value was −19.9%.

**Q.** And the “Effect on Systolic Pressure % change from baseline 24 h” value?
**A.** Its value is −3.0%.

Source: patent US12679878B2, “CRF2 receptor agonists and their use in therapy” (SANOFI, priority 2020, dated 2026)
